Test systems include 786-0 renal; HCT-15 colon; HOP-62 NSCLC; KM12 colon; MDA-MB-435; MOLT-4 leukemia; SF-268 CNS; SK-MEL-5 melanoma; UACC-257 melanoma; UACC-62 melanoma.
Common to all, as to test: inhibition of tumour cell growth, NCI panel, 48 h

From PubChem BioAssay (NCI) come the findings set out here.

Structures are written as SMILES.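 Growth conditions: 96-well plates. Treatment: test compound, 48 hours, 5 concentrations. Analysis: linear interpolation between bracketing concentrations; unreached endpoints set to highest concentration. GI50: concentration for 50% inhibition of growth. TGI is the concentration that stops growth completely.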 A value given as a limit tells only on which side of the number the result lay.

Regarding `COc1ccc2c(c1)c(-c1cc(-c3cn(C)c4ccc(OC)cc34)[nH]n1)cn2C`, the GI50 in the assay with 786-0 renal, with HCT-15 colon, in the assay on HOP-62 NSCLC, with KM12 colon, with MDA-MB-435 and with MOLT-4 leukemia was greater than 100 µM in each case. Also, the GI50 with SF-268 CNS, in the assay with SK-MEL-5 melanoma, in the assay with UACC-257 melanoma and in the assay with UACC-62 melanoma was greater than 100 µM throughout. Also, the TGI in the assay on 786-0 renal, in the assay on HCT-15 colon, with HOP-62 NSCLC, with KM12 colon, in the assay on MDA-MB-435 and in the assay on MOLT-4 leukemia was greater than 100 µM each time. Besides, the TGI in the assay with SF-268 CNS, with SK-MEL-5 melanoma, with UACC-257 melanoma and with UACC-62 melanoma was greater than 100 µM throughout.

In the case of `NCCn1c2c(c3ccccc3c1=O)C(=O)c1ccccc1-2`, the GI50 in the assay on 786-0 renal is 0.552 µM; in the assay on HCT-15 colon, 0.271 µM; with HOP-62 NSCLC, 0.369 µM; in the assay on KM12 colon it was 0.325 µM; with MDA-MB-435 it was 0.897 µM; with MOLT-4 leukemia, less than 0.0378 µM. The GI50 with SF-268 CNS was 1.32 µM; with SK-MEL-5 melanoma, 0.386 µM; with UACC-257 melanoma it was 0.64 µM; in the assay on UACC-62 melanoma, 0.833 µM. Besides, the TGI in the assay with 786-0 renal was determined as 1.78 µM; in the assay with HCT-15 colon, 2.32 µM; in the assay on HOP-62 NSCLC, 1.1 µM; with KM12 colon, 2.38 µM; with MDA-MB-435 it was 2.51 µM; in the assay with MOLT-4 leukemia it was 0.095 µM. The TGI with SF-268 CNS was 8.99 µM; in the assay with SK-MEL-5 melanoma it was 1.9 µM; in the assay with UACC-257 melanoma, 2.64 µM; in the assay on UACC-62 melanoma, 5.69 µM.

`Cc1nc2cc(Nc3nc(Nc4ccc(F)cc4)nc(-c4ccc(Cl)cc4)n3)ccc2n1Cc1ccccc1`: the GI50 in the assay on 786-0 renal is 6.48 µM; with HCT-15 colon, 3.77 µM; in the assay on HOP-62 NSCLC it was 7.36 µM; with KM12 colon it was 4.32 µM; in the assay with MDA-MB-435 it was 3.6 µM; with MOLT-4 leukemia it was 3.09 µM. Moreover, the GI50 with SF-268 CNS was 10.1 µM; in the assay on SK-MEL-5 melanoma it was 3.47 µM; with UACC-257 melanoma, 8.91 µM; in the assay with UACC-62 melanoma it was 6.3 µM. Besides, the TGI was 52.3 µM in the assay on 786-0 renal; greater than 100 µM in the assay on HCT-15 colon; 27.3 µM in the assay on HOP-62 NSCLC; greater than 100 µM in the assay on KM12 colon; greater than 100 µM with MDA-MB-435; greater than 100 µM in the assay with MOLT-4 leukemia. For the same compound, the TGI in the assay on SF-268 CNS was 97.3 µM; in the assay on SK-MEL-5 melanoma, greater than 100 µM; with UACC-257 melanoma it was greater than 100 µM; in the assay on UACC-62 melanoma it was greater than 100 µM.

In the case of `Cc1cc2c(-c3nc4ccccn4c3NC34CC5CC(CC(C5)C3)C4)c(O)c(O)cc2c(O)c1-c1c(C)cc2c(-c3nc4ccccn4c3NC34CC5CC(CC(C5)C3)C4)c(O)c(O)cc2c1O`, the GI50 is 0.932 µM in the assay on 786-0 renal; 0.466 µM in the assay on HCT-15 colon; 0.724 µM in the assay on HOP-62 NSCLC; 0.11 µM in the assay on KM12 colon; 0.552 µM in the assay with MDA-MB-435; 0.11 µM in the assay with MOLT-4 leukemia. For the same compound, the GI50 is 0.239 µM in the assay on SF-268 CNS, 0.564 µM in the assay on SK-MEL-5 melanoma, 1 µM with UACC-257 melanoma and 0.521 µM with UACC-62 melanoma. In addition, the TGI in the assay with 786-0 renal is 5.09 µM; in the assay on HCT-15 colon, greater than 25 µM; in the assay on HOP-62 NSCLC, greater than 25 µM; in the assay with KM12 colon, 11.7 µM; in the assay with MDA-MB-435 it was greater than 25 µM; with MOLT-4 leukemia, 10.4 µM. Also, the TGI was 6.78 µM in the assay on SF-268 CNS, 1.51 µM with SK-MEL-5 melanoma, greater than 25 µM in the assay on UACC-257 melanoma and 1.91 µM with UACC-62 melanoma.

Turning to `C/C(N=NC(=S)N1CCCCCC1)=C1\C=CC=CN1O`, the TGI is greater than 49.9 µM with 786-0 renal; greater than 100 µM in the assay on HCT-15 colon; greater than 20.5 µM with HOP-62 NSCLC; greater than 100 µM in the assay with KM12 colon; greater than 100 µM in the assay with MDA-MB-435; 20.1 µM in the assay with MOLT-4 leukemia. For the same compound, the TGI was greater than 100 µM in the assay with SF-268 CNS, 35.3 µM with SK-MEL-5 melanoma, 10.9 µM in the assay with UACC-257 melanoma and 24.6 µM in the assay on UACC-62 melanoma.

For the compound `COc1ccc(-c2nn3ncccc3c2-c2ccnc(Nc3cccc(C(F)(F)F)c3)n2)cc1`, the GI50 with 786-0 renal is 9.98 µM; with HCT-15 colon, 7.97 µM; with HOP-62 NSCLC it was 16.8 µM; in the assay with KM12 colon it was 9.33 µM; in the assay with MDA-MB-435, 10.1 µM; in the assay with MOLT-4 leukemia, 8.8 µM. Besides, the GI50 was 9.86 µM in the assay on SF-268 CNS, 5.27 µM in the assay on SK-MEL-5 melanoma, 9.34 µM with UACC-257 melanoma and 7.86 µM in the assay with UACC-62 melanoma. Further, the TGI with 786-0 renal, in the assay on HCT-15 colon, in the assay on HOP-62 NSCLC, in the assay with KM12 colon, with MDA-MB-435 and with MOLT-4 leukemia was greater than 25 µM in each case. The TGI is greater than 25 µM with SF-268 CNS, 14.5 µM with SK-MEL-5 melanoma, greater than 25 µM with UACC-257 melanoma and greater than 25 µM in the assay with UACC-62 melanoma.
